Test results as given in the kinase profiling compilation of Christmann-Franck et al. (2016).
“And” between values parts separate entries of the source, which are not always exact repeats. Identical values can stand only once.

Key:
Assay in all cases: radiometric filter-binding kinase assay, Kinase HotSpot
Conditions in all cases: compound 0.5 µM; ATP 10 µM
[1] = target: MARK1 (human) (UniProt Q9P0L2)
[2] = target: STK10 (human) (UniProt O94804)
[3] = target: PLK2 (human) (UniProt Q9NYY3)
[4] = target: SYK (human) (UniProt P43405)
[5] = target: IKBKE (human) (UniProt Q14164)
[6] = target: ADRBK1 (human) (UniProt P25098)
[7] = target: AKT2 (human) (UniProt P31751)
[8] = target: MAP3K10 (human) (UniProt Q02779)
[9] = target: TAOK2 (human) (UniProt Q9UL54)
[10] = target: PAK7 (human) (UniProt Q9P286)
[11] = target: PAK2 (human) (UniProt Q13177)
[12] = target: CLK2 (human) (UniProt P49760)
[13] = target: SRPK1 (human) (UniProt Q96SB4)
[14] = target: MAP3K14 (human) (UniProt Q99558)
[15] = target: TAOK1 (human) (UniProt Q7L7X3)
[16] = target: PRKCE (human) (UniProt Q02156)
[17] = target: CDK5 CDK5R1 p35 (human) (UniProt Q00535+Q15078)
[18] = target: GRK4 (human) (UniProt P32298)
[19] = target: MINK1 (human) (UniProt Q8N4C8)
[20] = target: LCK (human) (UniProt P06239)
[21] = target: MAP3K5 (human) (UniProt Q99683)
[22] = target: NTRK3 (human) (UniProt Q16288)
[23] = target: MAPK13 (human) (UniProt O15264)
[24] = target: DMPK (human) (UniProt Q09013)
[25] = target: CSNK1D (human) (UniProt P48730)
[26] = target: CAMK1 (human) (UniProt Q14012)
[27] = target: NUAK1 (human) (UniProt O60285)
[28] = target: HIPK4 (human) (UniProt Q8NE63)
[29] = target: MET (human) (UniProt P08581)
[30] = target: STK17A (human) (UniProt Q9UEE5)
[31] = target: MUSK (human) (UniProt O15146)
[32] = target: RPS6KB1 (human) (UniProt P23443)
[33] = target: MYLK (human) (UniProt Q15746)
[34] = target: KIT (human) (UniProt P10721)
[35] = target: MAP4K2 (human) (UniProt Q12851)
[36] = target: RPS6KA2 KD1 KD2 (human) (UniProt Q15349)
[37] = target: CAMK2A (human) (UniProt Q9UQM7)
[38] = target: PRKG1 (human) (UniProt Q13976)
[39] = target: DYRK4 (human) (UniProt Q9NR20)
[40] = target: DAPK3 (human) (UniProt O43293)
[41] = target: STK25 (human) (UniProt O00506)
[42] = target: CDK6 CCND1 (human) (UniProt Q00534+P24385)

Chain of PAK7 (human) (Q9P286 whole entry, looked up): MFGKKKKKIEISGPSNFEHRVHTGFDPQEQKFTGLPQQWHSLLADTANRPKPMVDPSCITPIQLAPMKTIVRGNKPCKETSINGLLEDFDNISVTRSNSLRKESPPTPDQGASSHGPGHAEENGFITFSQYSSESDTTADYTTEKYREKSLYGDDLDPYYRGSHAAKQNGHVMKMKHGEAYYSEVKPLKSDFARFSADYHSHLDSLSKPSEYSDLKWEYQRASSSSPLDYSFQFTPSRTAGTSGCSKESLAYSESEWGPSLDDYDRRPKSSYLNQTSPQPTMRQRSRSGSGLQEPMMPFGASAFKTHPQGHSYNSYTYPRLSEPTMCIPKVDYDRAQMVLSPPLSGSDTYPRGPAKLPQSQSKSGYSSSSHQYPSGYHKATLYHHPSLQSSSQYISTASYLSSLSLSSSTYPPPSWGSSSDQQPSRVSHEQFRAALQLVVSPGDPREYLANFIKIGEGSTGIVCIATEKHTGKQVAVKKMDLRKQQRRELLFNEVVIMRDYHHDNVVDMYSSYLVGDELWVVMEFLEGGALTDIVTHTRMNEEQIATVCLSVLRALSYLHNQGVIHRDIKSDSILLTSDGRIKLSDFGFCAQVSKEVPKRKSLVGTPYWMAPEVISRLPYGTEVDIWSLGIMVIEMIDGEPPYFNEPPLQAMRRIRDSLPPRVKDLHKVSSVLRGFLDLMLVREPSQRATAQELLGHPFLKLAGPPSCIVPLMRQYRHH
Chain of MAPK13 (human) (O15264 whole entry, looked up): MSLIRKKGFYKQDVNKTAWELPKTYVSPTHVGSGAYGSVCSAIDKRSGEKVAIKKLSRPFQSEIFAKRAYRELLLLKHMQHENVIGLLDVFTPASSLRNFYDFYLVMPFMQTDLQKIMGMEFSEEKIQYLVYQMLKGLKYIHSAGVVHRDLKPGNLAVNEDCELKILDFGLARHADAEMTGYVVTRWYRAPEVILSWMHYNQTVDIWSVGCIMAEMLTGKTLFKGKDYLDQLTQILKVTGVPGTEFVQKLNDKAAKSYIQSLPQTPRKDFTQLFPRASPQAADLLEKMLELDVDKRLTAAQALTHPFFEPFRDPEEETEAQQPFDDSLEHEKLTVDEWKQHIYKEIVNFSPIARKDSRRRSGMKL
Chain of IKBKE (human) (Q14164 whole entry, looked up): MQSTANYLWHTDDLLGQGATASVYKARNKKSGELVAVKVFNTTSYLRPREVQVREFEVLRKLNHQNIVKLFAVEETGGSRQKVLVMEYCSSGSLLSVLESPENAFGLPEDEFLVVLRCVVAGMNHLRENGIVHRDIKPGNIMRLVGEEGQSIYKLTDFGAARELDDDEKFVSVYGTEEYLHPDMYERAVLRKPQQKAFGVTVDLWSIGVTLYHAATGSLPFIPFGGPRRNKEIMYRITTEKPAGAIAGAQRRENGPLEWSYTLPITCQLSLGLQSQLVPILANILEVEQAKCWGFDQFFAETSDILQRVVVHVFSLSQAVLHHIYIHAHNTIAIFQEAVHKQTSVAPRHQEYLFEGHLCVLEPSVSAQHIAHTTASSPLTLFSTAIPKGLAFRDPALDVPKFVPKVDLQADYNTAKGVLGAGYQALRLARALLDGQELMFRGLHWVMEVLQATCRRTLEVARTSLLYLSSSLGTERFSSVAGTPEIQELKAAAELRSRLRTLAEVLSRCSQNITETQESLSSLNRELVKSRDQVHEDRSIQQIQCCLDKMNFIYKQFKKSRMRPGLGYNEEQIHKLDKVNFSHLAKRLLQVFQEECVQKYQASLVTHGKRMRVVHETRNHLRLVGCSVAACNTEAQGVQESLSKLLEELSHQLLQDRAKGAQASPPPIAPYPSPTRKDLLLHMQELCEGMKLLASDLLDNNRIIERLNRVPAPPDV
Chain of RPS6KB1 (human) (P23443 whole entry, looked up): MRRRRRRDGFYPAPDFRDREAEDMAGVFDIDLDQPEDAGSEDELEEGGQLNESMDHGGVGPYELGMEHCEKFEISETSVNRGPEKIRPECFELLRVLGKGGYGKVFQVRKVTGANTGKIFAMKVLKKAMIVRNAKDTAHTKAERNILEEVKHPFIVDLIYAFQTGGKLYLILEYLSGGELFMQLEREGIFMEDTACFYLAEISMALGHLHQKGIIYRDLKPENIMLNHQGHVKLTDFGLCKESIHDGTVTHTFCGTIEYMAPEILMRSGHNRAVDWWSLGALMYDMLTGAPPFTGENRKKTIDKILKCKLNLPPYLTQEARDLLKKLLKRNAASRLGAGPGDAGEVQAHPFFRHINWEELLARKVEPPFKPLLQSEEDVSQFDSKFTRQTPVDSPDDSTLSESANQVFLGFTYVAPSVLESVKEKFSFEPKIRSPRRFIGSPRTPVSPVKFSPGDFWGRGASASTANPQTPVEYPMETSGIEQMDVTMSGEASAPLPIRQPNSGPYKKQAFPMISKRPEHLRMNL
Chain of PRKG1 (human) (Q13976 whole entry, looked up): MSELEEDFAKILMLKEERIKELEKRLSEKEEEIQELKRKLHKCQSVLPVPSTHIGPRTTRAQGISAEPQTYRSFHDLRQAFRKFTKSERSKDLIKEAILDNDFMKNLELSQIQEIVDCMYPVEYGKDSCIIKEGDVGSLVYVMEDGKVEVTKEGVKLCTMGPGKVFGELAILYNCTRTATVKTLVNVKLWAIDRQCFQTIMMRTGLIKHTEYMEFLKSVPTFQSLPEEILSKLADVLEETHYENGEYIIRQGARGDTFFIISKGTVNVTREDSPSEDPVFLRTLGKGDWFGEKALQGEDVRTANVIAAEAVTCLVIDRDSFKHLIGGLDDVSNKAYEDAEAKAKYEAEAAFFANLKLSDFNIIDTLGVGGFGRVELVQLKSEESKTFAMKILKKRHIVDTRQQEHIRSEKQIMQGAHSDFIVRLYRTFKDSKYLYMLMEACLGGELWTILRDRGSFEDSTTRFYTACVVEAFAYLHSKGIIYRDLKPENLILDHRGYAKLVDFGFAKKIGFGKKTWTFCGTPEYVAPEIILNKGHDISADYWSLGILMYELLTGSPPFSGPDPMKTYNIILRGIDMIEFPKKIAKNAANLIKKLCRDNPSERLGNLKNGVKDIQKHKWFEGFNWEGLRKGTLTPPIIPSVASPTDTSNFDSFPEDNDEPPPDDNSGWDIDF
Chain of DYRK4 (human) (Q9NR20 whole entry, looked up): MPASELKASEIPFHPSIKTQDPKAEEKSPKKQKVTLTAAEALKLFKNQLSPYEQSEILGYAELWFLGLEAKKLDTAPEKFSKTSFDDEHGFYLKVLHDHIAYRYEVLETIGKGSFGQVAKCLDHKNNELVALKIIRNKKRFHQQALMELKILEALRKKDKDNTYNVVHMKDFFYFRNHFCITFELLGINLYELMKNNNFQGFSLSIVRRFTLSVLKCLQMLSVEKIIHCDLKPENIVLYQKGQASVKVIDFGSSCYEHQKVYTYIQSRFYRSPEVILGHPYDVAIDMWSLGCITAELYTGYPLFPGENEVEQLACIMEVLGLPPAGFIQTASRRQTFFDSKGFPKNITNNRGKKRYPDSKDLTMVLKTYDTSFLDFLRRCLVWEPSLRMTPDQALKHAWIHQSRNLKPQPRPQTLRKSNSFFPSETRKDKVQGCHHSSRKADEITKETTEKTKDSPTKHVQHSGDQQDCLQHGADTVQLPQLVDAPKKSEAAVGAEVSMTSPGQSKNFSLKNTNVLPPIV
Chain of NTRK3 (human) (Q16288 whole entry, looked up): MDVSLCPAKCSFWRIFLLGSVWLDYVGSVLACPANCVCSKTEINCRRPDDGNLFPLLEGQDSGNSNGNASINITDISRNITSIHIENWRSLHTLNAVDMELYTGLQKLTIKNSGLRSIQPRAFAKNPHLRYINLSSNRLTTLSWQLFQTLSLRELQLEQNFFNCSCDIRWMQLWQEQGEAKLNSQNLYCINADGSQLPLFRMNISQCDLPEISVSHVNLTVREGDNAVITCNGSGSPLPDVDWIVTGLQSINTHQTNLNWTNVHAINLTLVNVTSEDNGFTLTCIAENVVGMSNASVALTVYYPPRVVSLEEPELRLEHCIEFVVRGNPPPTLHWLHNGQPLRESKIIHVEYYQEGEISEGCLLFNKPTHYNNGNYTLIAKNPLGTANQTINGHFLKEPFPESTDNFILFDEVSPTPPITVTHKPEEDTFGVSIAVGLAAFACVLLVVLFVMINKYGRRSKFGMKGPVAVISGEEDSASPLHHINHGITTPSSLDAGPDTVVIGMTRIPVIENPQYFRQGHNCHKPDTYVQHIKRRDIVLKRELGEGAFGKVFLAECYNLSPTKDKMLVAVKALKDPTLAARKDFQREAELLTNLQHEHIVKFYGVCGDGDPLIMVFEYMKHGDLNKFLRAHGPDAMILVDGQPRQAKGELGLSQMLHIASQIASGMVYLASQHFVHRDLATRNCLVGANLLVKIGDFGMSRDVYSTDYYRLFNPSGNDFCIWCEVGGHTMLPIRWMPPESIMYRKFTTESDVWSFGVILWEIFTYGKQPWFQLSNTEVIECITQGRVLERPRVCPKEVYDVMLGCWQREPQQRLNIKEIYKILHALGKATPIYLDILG
Chain of NUAK1 (human) (O60285 whole entry, looked up): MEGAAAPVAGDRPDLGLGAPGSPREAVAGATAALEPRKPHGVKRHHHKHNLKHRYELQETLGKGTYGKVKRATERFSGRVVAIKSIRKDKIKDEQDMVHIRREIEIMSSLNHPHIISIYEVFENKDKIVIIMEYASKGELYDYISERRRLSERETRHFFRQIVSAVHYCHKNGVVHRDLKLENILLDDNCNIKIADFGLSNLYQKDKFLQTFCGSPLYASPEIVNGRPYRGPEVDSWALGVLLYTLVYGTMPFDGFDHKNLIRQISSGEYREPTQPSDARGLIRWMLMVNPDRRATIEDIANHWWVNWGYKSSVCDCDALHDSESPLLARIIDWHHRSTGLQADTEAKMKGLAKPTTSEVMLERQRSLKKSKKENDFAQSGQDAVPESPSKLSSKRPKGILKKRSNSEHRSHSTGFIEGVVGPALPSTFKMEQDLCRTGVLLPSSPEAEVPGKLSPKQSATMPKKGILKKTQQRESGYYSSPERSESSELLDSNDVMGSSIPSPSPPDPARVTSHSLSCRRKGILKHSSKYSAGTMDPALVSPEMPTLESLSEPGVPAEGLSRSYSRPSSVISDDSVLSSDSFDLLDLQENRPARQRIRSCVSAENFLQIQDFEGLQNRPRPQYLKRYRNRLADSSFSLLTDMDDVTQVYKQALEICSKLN

NC(=O)c1ccc(N(C(N)=O)c2c(F)cccc2F)nc1-c1ccc(F)cc1F
residual activity [1]: 132% | residual activity [2]: 93.8% | residual activity [3]: 102% | residual activity [4]: 110% | residual activity [5]: 88% | residual activity [6]: 99% | residual activity [7]: 118% | residual activity [8]: 104% | residual activity [9]: 98.7% | residual activity [10]: 96.4% | residual activity [11]: 101% | residual activity [12]: 86.9% | residual activity [13]: 99% | residual activity [14]: 114% | residual activity [15]: 96.2% | residual activity [16]: 101% | residual activity [17]: 99.9% | residual activity [18]: 90.7% | residual activity [19]: 100% | residual activity [20]: 86.3% | residual activity [21]: 102% | residual activity [22]: 95.9% | residual activity [23]: 94% | residual activity [24]: 104% | residual activity [25]: 89.8% | residual activity [26]: 98.1% | residual activity [27]: 108% | residual activity [28]: 90.5% | residual activity [29]: 89.4% | residual activity [30]: 100% | residual activity [31]: 102% | residual activity [32]: 100% | residual activity [33]: 101% | residual activity [34]: 97.7% | residual activity [35]: 108% | residual activity [36]: 97.5% | residual activity [37]: 90.9% | residual activity [38]: 88.1% and 95.7% | residual activity [39]: 96.3% | residual activity [40]: 107% | residual activity [41]: 97.1% | residual activity [42]: 95.1%

CC(C)[C@H](CO)Nc1nc(Nc2cccc(Cl)c2)c2ncn(C(C)C)c2n1
residual activity [1]: 94.5% | residual activity [2]: 81.8% | residual activity [3]: 102% | residual activity [4]: 88.9% | residual activity [5]: 99.2% | residual activity [6]: 103% | residual activity [7]: 90% | residual activity [8]: 98% | residual activity [9]: 91.3% | residual activity [10]: 76.8% | residual activity [11]: 103% | residual activity [12]: 21.9% | residual activity [13]: 77% | residual activity [14]: 112% | residual activity [15]: 95.4% | residual activity [16]: 115% | residual activity [17]: 2.61% | residual activity [18]: 91.1% | residual activity [19]: 98.6% | residual activity [20]: 86.9% | residual activity [21]: 108% | residual activity [22]: 15% | residual activity [23]: 122% | residual activity [24]: 108% | residual activity [25]: 92.2% | residual activity [26]: 110% | residual activity [27]: 71.1% | residual activity [28]: 88.7% | residual activity [29]: 96.2% | residual activity [30]: 95% | residual activity [31]: 56.8% | residual activity [32]: 90.8% | residual activity [33]: 95.1% | residual activity [34]: 91% | residual activity [35]: 97.6% | residual activity [36]: 69.4% | residual activity [37]: 101% | residual activity [38]: 71.4% and 90.2% | residual activity [39]: 91.2% | residual activity [40]: 104% | residual activity [41]: 116% | residual activity [42]: 67.5%

CSc1nc(-c2ccc(F)cc2)c(-c2ccnc(NC(C)c3ccccc3)c2)[nH]1 (stereo not drawn)
residual activity [1]: 95.3% | residual activity [2]: 86.8% | residual activity [3]: 94.3% | residual activity [4]: 96.8% | residual activity [5]: 84% | residual activity [6]: 102% | residual activity [7]: 96.8% | residual activity [8]: 90.6% | residual activity [9]: 92.7% | residual activity [10]: 85.3% | residual activity [11]: 104% | residual activity [12]: 102% | residual activity [13]: 106% | residual activity [14]: 127% | residual activity [15]: 79.9% | residual activity [16]: 87.6% | residual activity [17]: 101% | residual activity [18]: 90.6% | residual activity [19]: 89.6% | residual activity [20]: 102% | residual activity [21]: 106% | residual activity [22]: 93.6% | residual activity [23]: 93.9% | residual activity [24]: 80% | residual activity [25]: 41.9% | residual activity [26]: 96.2% | residual activity [27]: 94.3% | residual activity [28]: 95.2% | residual activity [29]: 116% | residual activity [30]: 97.8% | residual activity [31]: 101% | residual activity [32]: 91.2% | residual activity [33]: 100% | residual activity [34]: 92.4% | residual activity [35]: 82.5% | residual activity [36]: 94.3% | residual activity [37]: 96.5% | residual activity [38]: 105% | residual activity [39]: 91.4% | residual activity [40]: 94.3% | residual activity [41]: 118% | residual activity [42]: 90.9%

COc1ccc(-c2cnc3c(-c4ccsc4)cnn3c2)cc1
residual activity [1]: 98.9% | residual activity [2]: 81.6% | residual activity [3]: 100% | residual activity [4]: 101% | residual activity [5]: 85.5% | residual activity [6]: 100% | residual activity [7]: 93.3% | residual activity [8]: 94.2% | residual activity [9]: 97.4% | residual activity [10]: 78.1% | residual activity [11]: 79.1% | residual activity [12]: 83.8% | residual activity [13]: 101% | residual activity [14]: 106% | residual activity [15]: 105% | residual activity [16]: 103% | residual activity [17]: 64.5% | residual activity [18]: 97% | residual activity [19]: 63.7% | residual activity [20]: 81.6% | residual activity [21]: 105% | residual activity [22]: 49.8% | residual activity [23]: 93.5% | residual activity [24]: 100% | residual activity [25]: 83.6% | residual activity [26]: 104% | residual activity [27]: 77.9% | residual activity [28]: 108% | residual activity [29]: 86.3% | residual activity [30]: 91.6% | residual activity [31]: 74.9% | residual activity [32]: 92.1% | residual activity [33]: 102% | residual activity [34]: 36.2% | residual activity [35]: 74.8% | residual activity [36]: 87.5% | residual activity [37]: 96.6% | residual activity [38]: 86.5% and 89.1% | residual activity [39]: 129% | residual activity [40]: 81.9% | residual activity [41]: 102% | residual activity [42]: 53.4%
